Laboratory results published in US20240050727A1, “DEVICES FOR FORMING IN SITU MICRONEEDLES AND METHODS THEREOF” (University of Connecticut, priority 2022, published 2024).
“Also recorded” adds a separate entry of the source.

Tested on: C. albicans
Experiment: Antifungal activity in 3D culture model (C. albicans 3D fungal biofilms in CHROMagar)
Format: cell-based
Conditions: for superficial regrowth of preformed fungal biofilm: t=48 h preformed biofilm, monitored for 48 hr
Method: Antifungal activity. The antifungal activity was performed using an in-lab developed 3D culture model. C. Albicans was seeded at a density of 10^7 cells/mL and cultured for 48 h on CHROMagar. The 3D culture gels were treated with PBS and Caspofungin either topically or using the in-situ microneedle device and methodology. Samples were cut for in-depth imaging after 48 h of treatment and fungal inhibition was evaluated. Experiments were performed to assess the feasibility of the disclosed device in the treatment of infection. 10^6 cells/ml of C. albicans were inoculated in liquid CHROMagar™ and allowed to form 3D fungal biofilms. PBS or 32 μg/ml of Caspofungin (CPF) was applied topically and via a microneedling device immediately after the agar solidified (t=0 h) or 48 h after biofilm growth (t=48 h). The growth and distribution of C. albicans was monitored for 48 hr.

CC[C@H](C)C[C@H](C)CCCCCCCCC(=O)N[C@H]1C[C@@H](O)[C@@H](NCCN)NC(=O)[C@@H]2[C@@H](O)CCN2C(=O)[C@H]([C@H](O)CCN)NC(=O)[C@H]([C@H](O)[C@@H](O)c2ccc(O)cc2)NC(=O)[C@@H]2C[C@@H](O)CN2C(=O)[C@H]([C@@H](C)O)NC1=O [CPF, Caspofungin]
3D growth of fungal biofilm (fluorescence images of slices) (32 μg/ml CPF administered by drop): reduced the 3D growth | 3D growth of fungal biofilm (fluorescence images of slices) (32 μg/ml CPF administered by microneedle system): reduced the 3D growth | superficial regrowth of preformed fungal biofilm (32 μg/ml CPF applied topically via drop): not able to regrow on the surface; also recorded: prevention of superficial growth | superficial regrowth of preformed fungal biofilm (32 μg/ml CPF applied via microneedle system): not able to regrow on the surface; also recorded: prevention of superficial growth | fungal biofilm 3D growth at t=48 h (32 μg/ml CPF, microneedling system vs drop, applied 48 h after biofilm growth): effective in reducing the fungal biofilm growth only when administered via the microneedling system; also recorded: reduced only when CPF was administered via microneedles | overall biofilm thickness and biofilm growth at depth (calcofluor fluorescence signal) (CPF, microneedle delivery): reduces the overall biofilm thickness and biofilm growth at depths lower than 1 mm
